# Test results taken from patent publication US20210052512A1, “CANNABIDIOL PREPARATIONS AND ITS USES” (GW Research Limited, priority 2018, published 2021).
# Experiments:
# [1] = test system: human iPSC derived cerebral cortical neural stem/progenitor cells (hNSCs); experiment: Neurogenesis and neuronal differentiation of hNSCs (MAP2+ cell count, immunohistochemistry); assay type: cell-based; details: for Mean % MAP2+ cells (3 days): 3 days incubation; for Mean % MAP2+ cells (3 days) / Mean % MAP2+ cells (5 days): hNSCs; for Mean % MAP2+ cells (5 days): 5 days incubation
# Procedure: Human iPSC-derived cerebral cortical neural stem cells (hNSCs) (Axol Bioscience Inc., UK) were cultured as monolayers at a density of 1.0×10^4 cells/cm^2 on 100 mm diameter Petri dishes. The cells were collected from their original cryovial, suspended in Plating-XF Medium and plated on Petri dishes coated with SureBondXF 1× working solution prepared in D-PBS (without calcium or magnesium). hNSCs were incubated at 37° C. and 5% CO2 and 24 hours after of incubation, the plating medium was replaced with fresh Neural Expansion-XF Medium supplemented with the growth factors Recombinant Human EGF and Recombinant Human FGF2 (final concentration of 20 ng/mL (1×) of FGF2 and EGF). The cultures were re-fed with fresh Neural Expansion-XF supplemented with EGF and FGF2 every two days. When the hNSCs reached approximately 80% confluence, they were prepared for treatment. Pre-warmed Axol Unlock-XF was used to detach the cells and after 3 minutes of incubation the cells were re-suspended in Neural Expansion-XF Medium supplemented with EGF and FGF2. The cells (1×10^4 cells/cm^2) were then plated in Petri dishes coated with SureBondXF 1× and after 2 hours the medium was replaced with fresh Neural Expansion-XF supplemented with EGF and FGF2.
# hNSCs cultured as described above were plated at a density of 1×10^4 cells/cm^2 on SureBondXF-coated coverslips in the presence of botanically derived purified CBD; synthetic CBD; or vehicle diluted in the Neural Differentiation-XF Medium (DM, without growth factors) for 3-5 days at 37° C. in a 5% CO2/95% air atmosphere.
# Cannabinoids were dissolved in 95% (v/v) ethanol and added to the medium to obtain final concentrations of 0.1 or 1 μM CBD.
# Ethanol was added to the vehicle-treated cells for the whole differentiation period of 3-5 days wherein the final concentration was never higher than 0.05% (v/v).
# In order to perform immunohistochemistry, the cells were fixed with 4% (w/v) paraformaldehyde. Nonspecific binding was blocked with 10% (v/v) fetal bovine serum and 0.1% (v/v) Triton X-100 and incubated with primary antibodies: mouse anti-Map2ab (Sigma-Aldrich; 1:200) and rabbit anti-GFAP (DAKO; 1:200) or rabbit anti-Gap43 (Synaptic System; 1:300 at room temperature for 4 hours. Secondary antibodies—anti-mouse Alexa594 (Life Technologies; 1:100) and anti-rabbit Alexa488 (Life Technologies; 1:100)—were used for immunofluorescence. Cells were then counterstained with DAPI, washed with PBS and cover slipped with Aquatex mounting medium (Merck, Darmstadt, Germany). The immunofluorescence was studied with an epifluorescence microscope (Leica AF6000) equipped with the appropriate filter and then acquired using a digital camera (Leica, DFC 340) connected to the microscope and image analysis software (Leica, LAS AF). No immunoreactivity was found in the samples processed for the control of specificity of each primary antibody used in the study, which was performed by omitting the primary antibody before adding the appropriate secondary antibody.
# Digital Leica LAS AF 2.2.0 software (Live Data Mode system) was used for counting Map2ab+DAPI+ cells. […] For each experimental condition, cells from 3 different tubes were each analyzed in triplicate and 3 frames were collected at 20× magnification. Data were analyzed with GraphPad Prism 6 software, version 6.05 (GraphPad, Inc.) and are expressed as mean±SEM. Statistical differences among groups were determined by two-way ANOVA followed by post hoc Bonferroni tests for comparison among means. […]
# [2] = test system: MES-induced tonic seizures; experiment: Maximal electroshock seizure (MES) test; assay type: in vivo, mice; details: for HED - mg (human equivalent dose): converted to HED of 10 mg/kg, assuming 60 kg human
# Procedure: This study was performed using male C57Bl6 mice, weighing between 23.6-31.2 g, which were purchased from a licensed breeder (Charles River, UK). Naïve mice were acclimatized to the procedure room in their home cages, with food and water available ad libitum. Animals were housed in groups of 2-3, in standard caging on a 12 hr/12 hr light-dark cycle. All animals were tail marked and weighed at the beginning of the study. Animals were randomly assigned to vehicle or treatment groups.
# The following drugs were used in this study: synthetic CBD (SYN) and botanically derived purified CBD (BOT). The control vehicle used was (1:1:18), which was 5% Ethanol, 5% Kolliphor, 90% saline, and has been used extensively throughout similar seizure tests. All drugs were dissolved in the control vehicle for comparison. Animals were dosed (10 ml/kg) i.p. at 60 minutes prior to the administration of the maximal electroshock seizure (MES) test. In addition to the vehicle group, the dosage groups used for each treatment and included doses of 10, 50, 100 (Experiment 1 only), 150 and 200 mg/kg for CBD (SYN) and CBD (BOT). The number of animals in each of these groups were 10 (n=10).
# Two separate experiments were undertaken using two different batches of the botanically derived purified CBD. In the first experiment the concentration of THC in botanically derived purified CBD was 0.02% THC (w/w) whereas in the second experiment the concentration of THC in the botanically derived purified CBD was approximately 0.1% THC (w/w).
# The protective activity of CBD (SYN) and CBD (BOT) was evaluated and expressed as effective doses (ED50 in mg/kg), protecting 50% of mice against MES-induced tonic seizures. Electroconvulsions were produced by a fixed current intensity of 30 mA and corneally delivered electroshock (0.2 second duration). Mice were individually assessed for seizures following this pre-determined high level (30 mA) corneally delivered electroshock of sufficient intensity to reliably produce tonic hind limb extension seizures in 100% of control animals. […]
# [3] = test system: sub-chronic PCP-induced deficit in novel object recognition; experiment: Novel object recognition (NOR) test after sub-chronic PCP; assay type: in vivo, rats
# Procedure: Female hooded-Lister rats were used for this experiment. Rats were housed in groups of 5 under standard laboratory conditions under a 12 hr light: dark cycle, with lights on at 0700 hr. Testing was carried out in the light phase. Rats were randomly assigned to two treatment groups and treated with vehicle, n=20 (distilled water, i.p.) or Phencyclidine hydrochloride (PCP), n=100 (2 mg/kg, i.p. twice daily for 7-days). PCP was dissolved in distilled water. This was followed by a 7-day wash out period before the rats were tested following acute treatment with CBD, risperidone or vehicle.
# Risperidone (0.1 mg/kg) was dissolved in a minimum volume of acetic acid, made up to volume with distilled water and pH adjusted to 6 with 0.1M NaOH and administered via the i.p. route in a volume of 1 ml/kg, 120 minutes prior to testing.
# Botanically derived purified CBD was tested at 2, 10, 20 or 100 mg/kg and was dissolved in 2:1:17 (Ethanol:Cremofor:Saline 0.9%) and administered via the i.p. route in a volume of 5 ml/kg, 60 minutes prior to testing. The THC concentration in the botanically derived purified CBD was 0.03% (w/w) THC.
# Synthetic CBD at 1, 2, 5, 10 or 20 mg/kg was dissolved in 2:1:17 (Ethanol:Cremofor:Saline 0.9%) and administered via the i.p. route in a volume of 5 ml/kg, 120 minutes prior to testing.
# Rats were allowed to habituate to the empty test box and the behavioral test room environment for one hour on day 1. Prior to behavioral testing on day 2, rats were given a further 3 minute habituation.
# Following the 3 minute habituation period, the rats are given two 3 minute trials (T1 and T2) which were separated by a 1 minute inter-trial interval in the home cage during which the objects were changed. Behavior in all trials was recorded on video for subsequent blind scoring.
# In the acquisition trial (T1), the animals were allowed to explore two identical objects (A1 and A2) for 3 minutes. In the retention trial (T2), the animals were allowed to explore a familiar object (A) from T1 and a novel object (B) for 3 minutes. […]
# The exploration time(s) of each object (A, B, familiar and novel) in each trial were recorded using two stopwatches and the following factors were calculated: total exploration time of both objects in the acquisition trial, total exploration time of both objects in the retention trial. Habituation of exploratory activity included the exploration time, as measured by the number of lines crossed, for both trials.
# All data were assessed for normality using D'Agostino and Pearson normality test. Data non-normally distributed were analyzed using Kruskal-Wallis followed by planned comparisons with Dunn's correction. Normally distributed data were analyzed using one-way ANOVA followed by planned comparisons with Sidak's correction. […]
# [4] = test system: human iPSC derived cerebral cortical neural stem/progenitor cells (hNSCs); experiment: Axonal outgrowth and neuronal differentiation of hNSCs (GAP43 immunocytochemistry); assay type: cell-based; details: 1 μM
# Procedure: Human iPSC-derived cerebral cortical neural stem cells (hNSCs) (Axol Bioscience Inc., UK) were cultured as monolayers at a density of 1.0×10^4 cells/cm^2 on 100 mm diameter Petri dishes. The cells were collected from their original cryovial, suspended in Plating-XF Medium and plated on Petri dishes coated with SureBondXF 1× working solution prepared in D-PBS (without calcium or magnesium). hNSCs were incubated at 37° C. and 5% CO2 and 24 hours after of incubation, the plating medium was replaced with fresh Neural Expansion-XF Medium supplemented with the growth factors Recombinant Human EGF and Recombinant Human FGF2 (final concentration of 20 ng/mL (1×) of FGF2 and EGF). The cultures were re-fed with fresh Neural Expansion-XF supplemented with EGF and FGF2 every two days. When the hNSCs reached approximately 80% confluence, they were prepared for treatment. Pre-warmed Axol Unlock-XF was used to detach the cells and after 3 minutes of incubation the cells were re-suspended in Neural Expansion-XF Medium supplemented with EGF and FGF2. The cells (1×10^4 cells/cm^2) were then plated in Petri dishes coated with SureBondXF 1× and after 2 hours the medium was replaced with fresh Neural Expansion-XF supplemented with EGF and FGF2. […]
smiles,measurement,setting,value
"C=C(C)[C@@H]1CCC(C)=C[C@H]1c1c(O)cc(CCCCC)cc1O [Synthetic CBD, 2-[(1R,6R)-3-Methyl-6-(1-methylethenyl)-2-cyclohexen-1-yl]-5-pentyl-1,3-benzenediol]",Mean % MAP2+ cells (3 days),[1]; 0.1 μM,4.87 ± 0.1%
same,Mean % MAP2+ cells (5 days),[1]; 0.1 μM,6.02 ± 0.3%
same,Mean % MAP2+ cells (3 days),[1]; 1 μM,6.11 ± 0.3%
same,Mean % MAP2+ cells (5 days),[1]; 1 μM,7.09 ± 0.1%
same,Effect on neurogenesis and neuronal differentiation of hNSCs (in words),"[1]; 0.1 and 1 μM, 3 or 5 days, relative to vehicle-treated cells",did not have a significant effect
same,HED - mg (human equivalent dose),[2]; Experiment 1,600.0 mg
same,ED50 protecting 50% of mice against MES-induced tonic seizures,"[2]; Experiment 1, i.p. 60 minutes prior to MES, sigmoidal curve - constant top, listed as CBD (SYN)",77.60 mg/kg
same,HED - mg (human equivalent dose),[2]; Experiment 2,600.0 mg
same,human daily amount equivalent to the rat MED,[3]; 70 kg human,112 mg/day
same,amount of CBD required in a human relative to botanically derived purified CBD,[3]; from difference in MED,five times the amount of CBD
same,human equivalent dose of the rat MED,[3]; rat dose multiplied by 0.16 (FDA dose conversion guidance),1.6 mg/kg/day
same,minimal effective dose (MED) attenuating sub-chronic PCP-induced deficit in novel object recognition,"[3]; rats, i.p., 120 min ppt",10 mg/kg
same,Mean % GAP43+ cells (3 days),[4]; 3 days incubation,8.40 ± 2.0%
same,Mean % GAP43+ cells (5 days),[4]; 5 days incubation,9.15 ± 1.6%
